Test results as given in patent US9695155B2, “Herbicidal substituted pyrimidinyloxy benzene compounds” (E. I. DU PONT DE NEMOURS AND COMPANY, priority 2013, dated 2017).

Experiments:
[1] = tested on: barnyardgrass; assay: Test A preemergence; format: in vivo, Echinochloa crus-galli
Outline: (§1)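 Greenhouse pot test, loam/sand soil. Formulation: non-phytotoxic solvent mix plus surfactant. Pre: directed spray onto soil after sowing. Post: plants at 1–2 leaf, 2–10 cm. Rated visually vs untreated controls at ~10 d, 0 (no effect) to 100 (complete control).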

[2] = tested on: kochia; assay: Test A preemergence; format: in vivo, Kochia scoparia; details: 1000 g ai/ha, 0 to 100 scale, 0 no effect, 100 complete control, approx. 10 days
From the text: (§2) Seeds of plant species selected from barnyardgrass (Echinochloa crus-galli), kochia (Kochia scoparia), ragweed (common ragweed, Ambrosia elatior), Italian ryegrass (Lolium multiflorum), large (Lg) crabgrass (Digitaria sanguinalis), giant foxtail (Setaria faberii), morningglory (Ipomoea spp.), pigweed (Amaranthus retroflexus), velvetleaf (Abutilon theophrasti), wheat (Triticum aestivum), and corn (Zea mays) were planted into a blend of loam soil and sand and treated preemergence with a directed soil spray using test chemicals formulated in a non-phytotoxic solvent mixture which included a surfactant.
(§3) At the same time, plants selected from these crop and weed species and also blackgrass (Alopecurus myosuroides), and galium (catchweed bedstraw, Galium aparine) were planted in pots containing the same blend of loam soil and sand and treated with postemergence applications of test chemicals formulated in the same manner. Plants ranged in height from 2 to 10 cm and were in the one- to two-leaf stage for the postemergence treatment. Treated plants and untreated controls were maintained in a greenhouse for approximately 10 days, after which time all treated plants were compared to untreated controls and visually evaluated for injury. Plant response ratings, summarized in Table A, are based on a 0 to 100 scale where 0 is no effect and 100 is complete control. A dash (-) response means no test result.

[3] = tested on: ragweed; assay: Test A preemergence; format: in vivo, Ambrosia elatior; details: 1000 g ai/ha, 0 to 100 scale, 0 no effect, 100 complete control, approx. 10 days
From the text: as §2, §3

[4] = tested on: Italian ryegrass; assay: Test A preemergence; format: in vivo, Lolium multiflorum; details: 1000 g ai/ha, 0 to 100 scale, 0 no effect, 100 complete control, approx. 10 days
From the text: as §2, §3

[5] = tested on: giant foxtail; assay: Test A preemergence; format: in vivo, Setaria faberii
Outline: as §1

[6] = tested on: pigweed; assay: Test A preemergence; format: in vivo, Amaranthus retroflexus
Outline: as §1

[7] = tested on: barnyardgrass; assay: Test A postemergence; format: in vivo, Echinochloa crus-galli
Outline: as §1

[8] = tested on: kochia; assay: Test A postemergence; format: in vivo, Kochia scoparia; details: 1000 g ai/ha, 0 to 100 scale, 0 no effect, 100 complete control
From the text: as §2, §3

[9] = tested on: ragweed; assay: Test A postemergence; format: in vivo, Ambrosia elatior; details: 1000 g ai/ha, 0 to 100 scale, 0 no effect, 100 complete control
From the text: as §2, §3

[10] = tested on: Italian ryegrass; assay: Test A postemergence; format: in vivo, Lolium multiflorum; details: 1000 g ai/ha, 0 to 100 scale, 0 no effect, 100 complete control
From the text: as §2, §3

[11] = tested on: giant foxtail; assay: Test A postemergence; format: in vivo, Setaria faberii
Outline: as §1

[12] = tested on: pigweed; assay: Test A postemergence; format: in vivo, Amaranthus retroflexus
Outline: as §1

[13] = tested on: wheat; assay: Test A postemergence; format: in vivo, Triticum aestivum
Outline: as §1

[14] = tested on: corn; assay: Test A postemergence; format: in vivo, Zea mays
Outline: as §1

[15] = tested on: blackgrass; assay: Test A postemergence; format: in vivo, Alopecurus myosuroides; details: 1000 g ai/ha, 0 to 100 scale, 0 no effect, 100 complete control
From the text: as §2, §3

[16] = tested on: galium; assay: Test A postemergence; format: in vivo, Galium aparine; details: 1000 g ai/ha, 0 to 100 scale, 0 no effect, 100 complete control
From the text: as §2, §3

[17] = tested on: large (Lg) crabgrass; assay: Test A preemergence; format: in vivo, Digitaria sanguinalis
Outline: as §1

[18] = tested on: morningglory; assay: Test A preemergence; format: in vivo, Ipomoea spp.
Outline: as §1

[19] = tested on: velvetleaf; assay: Test A preemergence; format: in vivo, Abutilon theophrasti
Outline: as §1

[20] = tested on: wheat; assay: Test A preemergence; format: in vivo, Triticum aestivum
Outline: as §1

[21] = tested on: corn; assay: Test A preemergence; format: in vivo, Zea mays
Outline: as §1

[22] = tested on: large (Lg) crabgrass; assay: Test A postemergence; format: in vivo, Digitaria sanguinalis
Outline: as §1

[23] = tested on: morningglory; assay: Test A postemergence; format: in vivo, Ipomoea spp.
Outline: as §1

[24] = tested on: velvetleaf; assay: Test A postemergence; format: in vivo, Abutilon theophrasti
Outline: as §1

[25] = tested on: rice; assay: Test B flooded paddy test; format: in vivo, Oryza sativa; details: Flood, 250 g ai/ha; 0 to 100 scale where 0 is no effect and 100 is complete control
Outline: (§4)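 2-leaf stage plants; pots flooded to 3 cm, compound added to paddy water, depth maintained. Greenhouse 13–15 d. Visual rating vs untreated controls, 0 (no effect) to 100 (complete control); dash = no result.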

[26] = tested on: sedge, umbrella; assay: Test B flooded paddy test; format: in vivo, Cyperus difformis; details: Flood, 250 g ai/ha; 0 to 100 scale where 0 is no effect and 100 is complete control
Outline: as §4

[27] = tested on: Heteranthera limosa; assay: Test B flooded paddy test; format: in vivo; details: Flood, 250 g ai/ha; 0 to 100 scale where 0 is no effect and 100 is complete control
Outline: as §4

[28] = tested on: barnyardgrass; assay: Test B flooded paddy test; format: in vivo, Echinochloa crus-galli; details: Flood, 250 g ai/ha; 0 to 100 scale where 0 is no effect and 100 is complete control
Outline: as §4

[29] = 1000 g ai/ha, 0 to 100 scale, 0 no effect, 100 complete control, approx. 10 days
[30] = 1000 g ai/ha, 0 to 100 scale, 0 no effect, 100 complete control
[31] = 500 g ai/ha, 0 to 100 scale where 0 is no effect and 100 is complete control
[32] = 125 g ai/ha, 0 to 100 scale, 0 no effect, 100 complete control

NC(=O)c1cnn(-c2ccccc2Oc2ncc(Cl)cn2)c1 [Compound 281]
30: Ragweed plant response rating [3]
70: Plant response rating, Kochia [8] | Plant response rating, Ragweed [9] | Plant response rating, Pigweed [12, 30]
0: Barnyardgrass plant response rating [1, 29] | Kochia plant response rating [2] | Foxtail, Giant plant response rating [5, 29] | Plant response rating, Barnyardgrass [7, 30] | Plant response rating, Ryegrass, Italian [10] | Plant response rating, Foxtail, Giant [11, 30] | Plant response rating, Wheat [13, 30] | Plant response rating, Blackgrass [15]
60: Pigweed plant response rating [6, 29] | Plant response rating, Galium [16]
10: Ryegrass, Italian plant response rating [4] | Plant response rating, Corn [14, 30]

CC(C)(C)NS(=O)(=O)c1cnn(-c2ccccc2Oc2ncc(Cl)cn2)c1 [Compound 283]
0: Barnyardgrass plant response rating [1, 29] | Kochia plant response rating [2] | Ragweed plant response rating [3] | Ryegrass, Italian plant response rating [4] | Foxtail, Giant plant response rating [5, 29] | Pigweed plant response rating [6, 29] | Plant response rating, Barnyardgrass [7, 30] | Plant response rating, Ryegrass, Italian [10] | Plant response rating, Foxtail, Giant [11, 30] | Plant response rating, Wheat [13, 30] | Plant response rating, Corn [14, 30]
30: Plant response rating, Galium [16]
20: Plant response rating, Ragweed [9] | Plant response rating, Pigweed [12, 30]
10: Plant response rating, Kochia [8] | Plant response rating, Blackgrass [15]

C[Si](C)(C)c1cn(-c2c(Br)cccc2Oc2ncc(Cl)cn2)nn1 [Compound 300]
80: Foxtail, Giant plant response rating [5, 29]
0: Ragweed plant response rating [3] | Plant response rating, Barnyardgrass [7, 30] | Plant response rating, Ragweed [9] | Plant response rating, Ryegrass, Italian [10] | Plant response rating, Wheat [13, 30] | Plant response rating, Blackgrass [15]
20: Barnyardgrass plant response rating [1, 29] | Ryegrass, Italian plant response rating [4] | Plant response rating, Kochia [8]
100: Pigweed plant response rating [6, 29]
60: Kochia plant response rating [2] | Plant response rating, Pigweed [12, 30]
30: Plant response rating, Foxtail, Giant [11, 30]
40: Plant response rating, Galium [16]
10: Plant response rating, Corn [14, 30]

N#Cc1cccc(Oc2ncc(Cl)cn2)c1-n1cc([N+](=O)[O-])cn1 [Compound 304]
30: Plant response rating, Pigweed [12, 32]
50: Plant response rating, Pigweed [12, 31]
10: Crabgrass, Large plant response rating [17, 31]
0: Barnyardgrass plant response rating (0 to 100 scale, 0 is no effect, 100 is complete control) ([1]; 125 g ai/ha) | Barnyardgrass plant response rating [1, 31] | Crabgrass, Large plant response rating (0 to 100 scale) ([17]; 125 g ai/ha) | Foxtail, Giant plant response rating (0 to 100 scale) ([5]; 125 g ai/ha) | Foxtail, Giant plant response rating [5, 31] | Morningglory plant response rating (0 to 100 scale) ([18]; 125 g ai/ha) | Morningglory plant response rating [18, 31] | Pigweed plant response rating (0 to 100 scale) ([6]; 125 g ai/ha) | Pigweed plant response rating [6, 31] | Velvetleaf plant response rating (0 to 100 scale) ([19]; 125 g ai/ha) | Velvetleaf plant response rating [19, 31] | Wheat plant response rating (0 to 100 scale) ([20]; 125 g ai/ha) | Wheat plant response rating [20, 31] | Corn plant response rating (0 to 100 scale) ([21]; 125 g ai/ha) | Corn plant response rating [21, 31] | Plant response rating, Barnyardgrass [7, 32] | Plant response rating, Barnyardgrass [7, 31] | Plant response rating, Crabgrass, Large [22, 32] | Plant response rating, Crabgrass, Large [22, 31] | Plant response rating, Foxtail, Giant [11, 32] | Plant response rating, Foxtail, Giant [11, 31] | Plant response rating, Morningglory [23, 32] | Plant response rating, Morningglory [23, 31] | Plant response rating, Velvetleaf [24, 32] | Plant response rating, Velvetleaf [24, 31] | Plant response rating, Wheat [13, 32] | Plant response rating, Wheat [13, 31] | Plant response rating, Corn [14, 32] | Plant response rating, Corn [14, 31] | Plant response rating, Rice [25] | Plant response rating, Sedge, Umbrella [26] | Plant response rating, Ducksalad [27] | Plant response rating, Barnyardgrass [28]
